According to US10092537B2, “Use for PAI-1 inhibitor” (RENASCIENCE CO., LTD., priority 2013, dated 2018):
Where a name gives a salt, the structure may show the parent alone.

Molecular target: human PAI-1 (Homo sapiens, UniProt P05121)
Assay: Measurement of PAI-1 inhibitory activity of compound group 1 (t-PA, Spectrozyme t-PA chromogenic substrate)
Details: read-out: PAI-1 activity %
Method: Subsequently, human-derived tissue plasminogen activator (t-PA) (manufactured by American Diagnostica, Inc. (USA); the same applies hereinafter) adjusted to 0.05 pmol/μL was added thereto, and the mixture was further incubated at 37° C. for 60 minutes. Then, 0.25 mM of Spectrozyme t-PA synthetic substrate (manufactured by American Diagnostica, Inc. (USA); the same applies hereinafter), which is a chromogenic substrate, was added. The final mixture contained 50 mM Tris-HCl (pH 8), 150 mM NaCl, 1% DMSO, 0.1% PEG-6000, 0.2 mM CHAPS, 5 nM PAI-1, 2 nM t-PA, 0.2 mM Spectrozyme t-PA synthetic substrate, and each compound (10 μM or 2.5 μM).
Free radical p-nitroaniline removed from the chromogenic substrate (Spectrozyme t-PA) by t-PA action was measured using a spectrophotometer at an absorbance of 405 nm at 20-minute intervals, for 120 minutes.

human PAI-1, sequence (P05121 24-402): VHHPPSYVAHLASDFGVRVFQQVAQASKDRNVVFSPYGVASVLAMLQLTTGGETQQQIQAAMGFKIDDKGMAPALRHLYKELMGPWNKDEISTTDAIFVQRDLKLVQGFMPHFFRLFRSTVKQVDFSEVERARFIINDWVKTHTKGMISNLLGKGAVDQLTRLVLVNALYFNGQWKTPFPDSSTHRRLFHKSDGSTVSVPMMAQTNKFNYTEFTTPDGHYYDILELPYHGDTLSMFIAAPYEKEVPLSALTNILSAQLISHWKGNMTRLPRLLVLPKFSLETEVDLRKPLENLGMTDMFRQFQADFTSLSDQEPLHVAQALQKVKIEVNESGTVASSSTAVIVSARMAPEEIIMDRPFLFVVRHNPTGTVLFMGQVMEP

activity at 2.5 µM | activity at 10 µM | SMILES
38.6% | 0.2% | O=C(Nc1ccc(Cl)cc1C(=O)O)C(=O)c1c[nH]c2ccc(OCc3ccccc3)cc12 [Example 57, 2-({[5-(benzyloxy)-1H-indol-3-yl](oxo)acetyl}amino)-5-chlorobenzoic acid]
0% | 0% | O=C(Nc1ccc(Cl)cc1C(=O)O)c1cccc(-c2cccc3ccccc23)c1 [Example 58, 5-chloro-2-({[3-(naphthalen-1-yl)phenyl]carbonyl}amino)benzoic acid]
29.1% | 0.6% | O=C(Nc1ccc(Cl)cc1C(=O)O)c1cccc(C23CC4CC(CC(C4)C2)C3)c1 [Example 62, 2-({[3-(adamantan-1-yl)phenyl]carbonyl}amino)-5-chlorobenzoic acid]
94.6% | 4.4% | O=C(Cc1ccc(-c2ccccc2)cc1)Nc1ccc(Cl)cc1C(=O)O [Example 70, 2-[(biphenyl-4-ylacetyl)amino]-5-chlorobenzoic acid]
25.3% | 0.3% | O=C(/C=C/c1ccc(-c2ccccc2)cc1)Nc1ccc(Cl)cc1C(=O)O [Example 78, 2-{[(2E)-3-(biphenyl-4-yl)prop-2-enoyl]amino}-5-chlorobenzoic acid]
45.5% | 0% | O=C(Nc1ccc(Cl)cc1C(=O)O)c1cccc(C2CCCCC2)c1 [Example 80, 5-chloro-2-{[(3-cyclohexylphenyl)carbonyl]amino}benzoic acid]
1% | 0% | O=C(Nc1ccc(C2=CCCCC2)cc1C(=O)O)c1ccc(C2CCCCC2)cc1 [Example 81, 5-(cyclohex-1-en-1-yl)-2-{[(4-cyclohexylphenyl)carbonyl]amino}benzoic acid]
97.5% | 11% | O=C(O)c1cc(Cl)ccc1NC(=O)C1CCCC2(CCCCC2)C1 (stereo not drawn) [Example 85, 5-chloro-2-[(spiro[5.5]undec-2-ylcarbonyl)amino]benzoic acid]
35.5% | 0.8% | O=C(Nc1ccc(Cl)cc1C(=O)O)c1ccc(C#CC2CCCCC2)cc1 [Example 88, 5-chloro-2-({[4-(cyclohexylethynyl)phenyl]carbonyl}amino)benzoic acid]
65.3% | 0.1% | O=C(/C=C/c1cccc(C2=CCCCC2)c1)Nc1ccc(Cl)cc1C(=O)O [Example 90, 5-chloro-2-({(2E)-3-[3-(cyclohex-1-en-1-yl)phenyl]prop-2-enoyl}amino)benzoic acid]
0% | 0% | O=C(Nc1ccc(CCC2CCCCC2)cc1C(=O)O)c1ccc(C2CCCCC2)cc1 [Example 93, 5-(2-cyclohexylethyl)-2-{[(4-cyclohexylphenyl)carbonyl]amino}benzoic acid]
89.9% | 0.7% | O=C(Nc1ccc(Cl)cc1C(=O)O)c1ccc(C(O)C23CC4CC(CC(C4)C2)C3)cc1 (stereo not drawn) [Example 97, 2-[({4-[adamantan-1-yl(hydroxy)methyl]phenyl}carbonyl)amino]-5-chlorobenzoic acid]

Continued, compound first:

SMILES | activity at 2.5 µM | activity at 10 µM
O=C(CCOc1ccc(C23CC4CC(CC(C4)C2)C3)cc1)Nc1ccc(Cl)cc1C(=O)O [Example 59, 2-({3-[4-(adamantan-1-yl)phenoxy]propanoyl}amino)-5-chlorobenzoic acid] | 56.3% | 1.4%
O=C(O)c1cc(Cl)ccc1NC(=O)c1cc2cc(-c3ccccc3)ccc2n1CCCO [Example 60, 5-chloro-2-({[1-(3-hydroxypropyl)-5-phenyl-1H-indol-2-yl]carbonyl}amino)benzoic acid] | 25% | 0.9%
COc1ccccc1-c1cccc(OCC(=O)Nc2ccc(Cl)cc2C(=O)O)c1 [Example 61, 5-chloro-2-({[(2′-methoxybiphenyl-3-yl)oxy]acetyl}amino)benzoic acid] | 92.4% | 38.9%
O=C(Nc1ccc(Cl)cc1C(=O)O)c1ccc(C2CCCCC2)cc1 [Example 69, 5-chloro-2-{[(4-cyclohexylphenyl)carbonyl]amino}benzoic acid] | 44.7% | 0.6%
O=C(Nc1ccc(-c2ccccc2)cc1)Nc1ccc(Cl)cc1C(=O)O [Example 71, 2-[(biphenyl-4-ylcarbamoyl)amino]-5-chlorobenzoic acid] | 39.6% | 2.1%
Cc1ccc(-c2ccc(F)cc2)cc1NCC(=O)Nc1ccc(Cl)cc1C(=O)O [Example 72, 5-chloro-2-{[N-(4′-fluoro-4-methylbiphenyl-3-yl)glycyl]amino}benzoic acid] | 31.1% | 3.6%
O=C(CNC(c1ccccc1)c1ccccc1)Nc1ccc(Cl)cc1C(=O)O [Example 73, 5-chloro-2-{[N-(diphenylmethyl)glycyl]amino}benzoic acid] | 82.2% | 31.2%
Cc1sc(NC(=O)c2ccc(C3CCCCC3)cc2)c(C(=O)O)c1-c1ccccc1 [Example 74, 2-{[(4-cyclohexylphenyl)carbonyl]amino}-5-methyl-4-phenylthiophene-3-carboxylic acid] | 8.6% | 0.2%
O=C(O)c1cc(Cl)ccc1NC(=O)N1CCN(C(c2ccccc2)c2ccccc2)CC1 [Example 75, 5-chloro-2-({[4-(diphenylmethyl)piperazin-1-yl]carbonyl}amino)benzoic acid hydrochloride] | 86.4% | 4.7%
O=C(COC(c1ccccc1)c1ccccc1)Nc1ccc(Cl)cc1C(=O)O [Example 76, 5-chloro-2-{[(diphenylmethoxy)acetyl]amino}benzoic acid] | 92.9% | 30.6%
O=C(CN1CCN(C(c2ccccc2)c2ccccc2)CC1)Nc1ccc(Cl)cc1C(=O)O [Example 77, 5-chloro-2-({[4-(diphenylmethyl)piperazin-1-yl]acetyl}amino)benzoic acid] | 89.6% | 19.3%
O=C(Nc1ccc(Cl)cc1C(=O)O)c1cccc(C2=CCCCC2)c1 [Example 79, 5-chloro-2-({[3-(cyclohex-1-en-1-yl)phenyl]carbonyl}amino)benzoic acid] | 44.5% | 1.6%
O=C(Nc1ccc(C2CCCCC2)cc1C(=O)O)c1ccc(C2CCCCC2)cc1 [Example 82, 5-cyclohexyl-2-{[(4-cyclohexylphenyl)carbonyl]amino}benzoic acid] | 1.7% | 1.4%
O=C(Nc1ccc(Cl)cc1C(=O)O)c1ccc(N2CCCC2)cc1 [Example 83, 5-chloro-2-({[4-(pyrrolidin-1-yl)phenyl]carbonyl}amino)benzoic acid hydrochloride] | 99.1% | 26.6%
O=C(Nc1ccc(Cl)cc1C(=O)O)C1=CC2(CCCCC2)CCC1 [Example 84, 5-chloro-2-[(spiro[5.5]undec-1-en-2-ylcarbonyl)amino]benzoic acid] | 97% | 5.5%
Cc1ccc(C23CC4CC(CC(C(=O)Nc5ccc(Cl)cc5C(=O)O)(C4)C2)C3)cc1 [Example 86, 5-chloro-2-({[3-(4-methylphenyl)adamantan-1-yl]carbonyl}amino)benzoic acid] | 63.5% | 1.4%
O=C(Nc1ccc(Cl)cc1C(=O)O)c1cccc(C#CC2CCCCC2)c1 [Example 87, 5-chloro-2-({[3-(cyclohexylethynyl)phenyl]carbonyl}amino)benzoic acid] | 20.5% | 1.2%
O=C(/C=C/c1cccc(-c2ccccc2)c1)Nc1ccc(Cl)cc1C(=O)O [Example 89, 2-{[(2E)-3-(biphenyl-3-yl)prop-2-enoyl]amino}-5-chlorobenzoic acid] | 60.7% | 0.1%
O=C(/C=C(/Cl)C1CCCCC1)Nc1ccc(Cl)cc1C(=O)O [Example 91, 5-chloro-2-{[(2E)-3-chloro-3-cyclohexylprop-2-enoyl]amino}benzoic acid] | 96.9% | 16.7%
O=C(Nc1ccc(C#CC2CCCCC2)cc1C(=O)O)c1ccc(C2CCCCC2)cc1 [Example 92, 5-(cyclohexylethynyl)-2-{[(4-cyclohexylphenyl)carbonyl]amino}benzoic acid] | 0% | 0.4%
O=C(C#Cc1ccc(C23CC4CC(CC(C4)C2)C3)cc1)Nc1ccc(Cl)cc1C(=O)O [Example 94, 2-({3-[4-(adamantan-1-yl)phenyl]prop-2-ynoyl}amino)-5-chlorobenzoic acid] | 3.5% | 7.4%
C#Cc1ccc(NC(=O)c2ccc(C3CCCCC3)cc2)c(C(=O)O)c1 [Example 95, 2-{[(4-cyclohexylphenyl)carbonyl]amino}-5-ethynylbenzoic acid] | 80.5% | 0.3%
O=C(Nc1ccc(Cl)cc1C(=O)O)c1ccc(CC23CC4CC(CC(C4)C2)C3)cc1 [Example 96, 2-({[4-(adamantan-1-ylmethyl)phenyl]carbonyl}amino)-5-chlorobenzoic acid] | 23.9% | 5%
CC1(c2ccc(C(=O)Nc3ccc(Cl)cc3C(=O)O)cc2)CCCCC1 [Example 98, 5-chloro-2-({[4-(1-methylcyclohexyl)phenyl]carbonyl}amino)benzoic acid] | 41.5% | 0.1%
O=C(Nc1ccc(Cl)cc1C(=O)O)c1cccc(OCc2ccc3ccccc3n2)c1 [Example 99, sodium 5-chloro-2-({[3-(quinolin-2-ylmethoxy)phenyl]carbonyl}amino)benzoate] | 87.8% | 0.3%
O=C(Nc1ccc(Cl)cc1C(=O)O)c1ccc(OCc2ccc3ccccc3n2)cc1 [Example 100, sodium 5-chloro-2-({[4-(quinolin-2-ylmethoxy)phenyl]carbonyl}amino)benzoate] | 92.1% | 0.7%
O=C(/C=C/c1cccc(-c2cccc3cccnc23)c1)Nc1ccc(Cl)cc1C(=O)O [Example 101, sodium 5-chloro-2-({(2E)-3-[3-(quinolin-8-yl)phenyl]prop-2-enoyl}amino)benzoate] | 24.7% | 0.2%
